A value given as a limit tells only on which side of the number the result lay.

T1 sequence (Q13547 whole entry): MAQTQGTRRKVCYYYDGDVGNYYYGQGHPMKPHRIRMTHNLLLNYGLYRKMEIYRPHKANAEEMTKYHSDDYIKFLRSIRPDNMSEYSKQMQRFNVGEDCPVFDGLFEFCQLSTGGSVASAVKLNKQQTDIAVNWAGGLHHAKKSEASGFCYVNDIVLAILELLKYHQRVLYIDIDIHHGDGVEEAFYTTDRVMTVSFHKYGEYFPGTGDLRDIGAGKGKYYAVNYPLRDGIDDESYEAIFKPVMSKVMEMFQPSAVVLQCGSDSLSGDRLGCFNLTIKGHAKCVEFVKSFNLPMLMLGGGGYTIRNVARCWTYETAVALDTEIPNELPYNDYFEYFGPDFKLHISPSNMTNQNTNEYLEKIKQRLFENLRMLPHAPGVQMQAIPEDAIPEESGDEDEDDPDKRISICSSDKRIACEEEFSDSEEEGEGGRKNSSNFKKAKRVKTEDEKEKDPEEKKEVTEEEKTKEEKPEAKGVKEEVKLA

The first assay addresses T1, HDAC1 (Homo sapiens, UniProt Q13547).
T1 construct: purchased BPS Bioscience
Put plainly: HDAC inhibitory activity, fluorescence-coupled acetylated peptide substrate assay (Lys-Ac-AMC). The class given is biochemical. As to conditions: Table 2.
Compound `Cc1nc(N(C)c2ccc(Oc3ccc(C(=O)NO)cn3)cc2)c2ccccc2n1` [II-7, N-hydroxy-6-(4-(methyl(2-methyl-4-quinazolinyl)amino)phenoxy)nicotinamide] yielded an IC50 of 0.1 to 1 µM.
In turn, `CN(c1ccc(OCCCC(=O)NO)cc1)c1ncnc2ccccc12` [II-13, N-hydroxy-4-(4-(methyl(4-quinazolinyl)amino)phenoxy)butanamide] came in with an IC50 of 0.01 to 0.1 µM.

Still in this assay, the particulars now being: Table 3.
`Cc1nc(N(C)c2ccc(Oc3ccc(C(=O)NO)cn3)cc2)c2ccccc2n1` [II-7, N-hydroxy-6-(4-(methyl(2-methyl-4-quinazolinyl)amino)phenoxy)nicotinamide]: the IC50 was found to be 0.638 µM.
On the same count and under the same terms, as for `CN(c1ccc(OCCCC(=O)NO)cc1)c1ncnc2ccccc12` [II-13, N-hydroxy-4-(4-(methyl(4-quinazolinyl)amino)phenoxy)butanamide], the figure is 0.076 µM.

In a further assay the target is T2, HDAC6 (Homo sapiens, UniProt Q9UBN7).
T2 sequence (Q9UBN7 1-1215): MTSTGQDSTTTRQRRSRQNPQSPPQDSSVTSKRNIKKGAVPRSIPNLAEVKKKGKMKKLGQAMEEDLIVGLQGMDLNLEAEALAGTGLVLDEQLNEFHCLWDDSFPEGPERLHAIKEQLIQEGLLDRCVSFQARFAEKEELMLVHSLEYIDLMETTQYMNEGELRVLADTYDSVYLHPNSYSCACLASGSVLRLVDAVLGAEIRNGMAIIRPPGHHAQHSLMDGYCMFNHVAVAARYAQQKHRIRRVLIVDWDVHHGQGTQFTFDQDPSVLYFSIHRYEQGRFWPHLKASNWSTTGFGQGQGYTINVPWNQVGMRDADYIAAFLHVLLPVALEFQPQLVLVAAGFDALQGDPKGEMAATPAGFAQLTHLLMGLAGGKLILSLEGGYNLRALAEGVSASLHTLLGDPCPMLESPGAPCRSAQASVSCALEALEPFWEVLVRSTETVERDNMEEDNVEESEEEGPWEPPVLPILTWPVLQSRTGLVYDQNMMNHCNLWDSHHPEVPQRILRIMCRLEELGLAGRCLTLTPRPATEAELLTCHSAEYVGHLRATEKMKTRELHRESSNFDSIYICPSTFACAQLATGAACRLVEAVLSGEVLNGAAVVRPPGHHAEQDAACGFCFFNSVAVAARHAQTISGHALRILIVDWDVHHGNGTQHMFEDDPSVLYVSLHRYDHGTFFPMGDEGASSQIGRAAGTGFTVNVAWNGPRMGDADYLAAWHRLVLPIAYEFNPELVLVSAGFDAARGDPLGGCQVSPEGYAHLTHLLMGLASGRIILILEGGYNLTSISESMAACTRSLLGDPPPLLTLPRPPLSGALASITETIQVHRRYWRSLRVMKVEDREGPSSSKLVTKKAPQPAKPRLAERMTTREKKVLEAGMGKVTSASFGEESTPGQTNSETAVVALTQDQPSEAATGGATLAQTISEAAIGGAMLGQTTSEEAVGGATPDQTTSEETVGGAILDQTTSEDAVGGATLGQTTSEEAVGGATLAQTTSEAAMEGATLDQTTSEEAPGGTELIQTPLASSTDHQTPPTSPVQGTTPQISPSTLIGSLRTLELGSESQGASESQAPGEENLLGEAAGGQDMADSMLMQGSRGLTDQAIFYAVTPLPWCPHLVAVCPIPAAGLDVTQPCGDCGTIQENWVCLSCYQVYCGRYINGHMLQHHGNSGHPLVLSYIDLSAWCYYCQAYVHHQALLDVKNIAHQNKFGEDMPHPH
Put plainly: HDAC inhibitory activity, fluorescence-coupled acetylated peptide substrate assay. Type of assay: biochemical. As to conditions: Table 2.
Procedure: The HDAC inhibitory activity was determined by fluorescence-coupled acetylated peptide substrate assay (Lys-Ac-AMC). HDAC1 protein was purchased from BPS Bioscience, and the reaction buffer system was a modified tris(hydroxymethyl)aminomethane buffer (pH 7.0). The small molecule compounds of the present invention were prepared by being dissolved in 100% DMSO. HDAC was prepared in a buffer at a certain concentration as an enzyme solution; trypsin and fluorescent group 4-amino-7-coumarin coupled-acetylated peptide (Ac-peptide) substrate were prepared in a buffer at a certain concentration as a substrate solution. The compounds were added into the reaction wells in a 384-well plate at a designed concentration of 10 μM, 1 μM, 0.5 μM, 0.1 μM, 0.05 μM, 0.01 μM, 0.005 μM, 0.001 μM, and 0.00005 μM, respectively, and then 15 μl of the HDAC solution was added into the reaction wells (15 μl of blank buffer to the control well). […] The results were analyzed by GraphPad Prism software and IC50 values were calculated according to the formula: Y=Background Data+(Top Data−Background Data)/(1+10^((Log IC50−X) a curve slope)), where Y: the inhibition rate (%) and X: the concentration of the compound.
`Cc1nc(N(C)c2ccc(Oc3ccc(C(=O)NO)cn3)cc2)c2ccccc2n1` [II-7, N-hydroxy-6-(4-(methyl(2-methyl-4-quinazolinyl)amino)phenoxy)nicotinamide] displayed an IC50 below 0.01 µM.
`CN(c1ccc(OCCCC(=O)NO)cc1)c1ncnc2ccccc12` [II-13, N-hydroxy-4-(4-(methyl(4-quinazolinyl)amino)phenoxy)butanamide]: the IC50 was in the range of 0.01 to 0.1 µM.

The same assay, now with this note: Table 3.
Take `Cc1nc(N(C)c2ccc(Oc3ccc(C(=O)NO)cn3)cc2)c2ccccc2n1` [II-7, N-hydroxy-6-(4-(methyl(2-methyl-4-quinazolinyl)amino)phenoxy)nicotinamide]: the IC50 came out at 0.0058 µM.
The same measure, in the same setting: the result for `CN(c1ccc(OCCCC(=O)NO)cc1)c1ncnc2ccccc12` [II-13, N-hydroxy-4-(4-(methyl(4-quinazolinyl)amino)phenoxy)butanamide] reads 0.034 µM.

Still in this assay, the particulars now being: ratio of IC50 HDAC1 to HDAC6.
Regarding `Cc1nc(N(C)c2ccc(Oc3ccc(C(=O)NO)cn3)cc2)c2ccccc2n1` [II-7, N-hydroxy-6-(4-(methyl(2-methyl-4-quinazolinyl)amino)phenoxy)nicotinamide], the “Selection Ratio HDAC1/6” value is reported as 110.0.
`CN(c1ccc(OCCCC(=O)NO)cc1)c1ncnc2ccccc12` [II-13, N-hydroxy-4-(4-(methyl(4-quinazolinyl)amino)phenoxy)butanamide]: the “Selection Ratio HDAC1/6” value is on record as 2.2.

Staying with this assay, now noted: ratio of IC50 HDAC8 to HDAC6.
Turning to `Cc1nc(N(C)c2ccc(Oc3ccc(C(=O)NO)cn3)cc2)c2ccccc2n1` [II-7, N-hydroxy-6-(4-(methyl(2-methyl-4-quinazolinyl)amino)phenoxy)nicotinamide], the “Selection Ratio HDAC8/6” value came to 218.1.
On the same count and under the same terms, the result for `CN(c1ccc(OCCCC(=O)NO)cc1)c1ncnc2ccccc12` [II-13, N-hydroxy-4-(4-(methyl(4-quinazolinyl)amino)phenoxy)butanamide] reads 72.3.

The test system of a further assay is Human cervical cancer cell Hela. Put plainly: Cell proliferative activity (MTT / cck-8). Type of assay: cell-based. The following applies: incubated for 96 hours, read-out: Half-Inhibitory Concentration IC50 Human cervical cancer cell Hela. How it is done:
(§1) Tumor cell line A375: human melanoma cell; H460: lung adenocarcinoma cell; Hela: human cervical cancer cell; HepG2: human liver cancer cell; and SKOV-3: human ovarian cancer cell, were all purchased from ATCC and cultured to logarithmic phase according to the cultivation protocol recommended by ATCC. The cells in the logarithmic phase were plated onto a 96-well plate at 2000-3000 cells/well; in the case of adherent cells, the cells should be adherent to the wall. […] After that, the cell proliferative activity was determined by MTT assay for the tumor cells representing the solid tumor model and by cck-8 assay for the tumor cells representing the hematologic tumor model.
`Cc1nc(N(C)c2ccc(Oc3ccc(C(=O)NO)cn3)cc2)c2ccccc2n1` [II-7, N-hydroxy-6-(4-(methyl(2-methyl-4-quinazolinyl)amino)phenoxy)nicotinamide]: the IC50 lay within 0.1 to 1 µM.
Still for that read-out and setting: as for `CN(c1ccc(OCCCC(=O)NO)cc1)c1ncnc2ccccc12` [II-13, N-hydroxy-4-(4-(methyl(4-quinazolinyl)amino)phenoxy)butanamide], the figure is 0.1 to 1 µM.

A further assay deals with Human liver cancer cell HepG2. Put plainly: Cell proliferative activity (MTT / cck-8). The class given is cell-based. As to conditions: incubated for 96 hours, read-out: Half-Inhibitory Concentration IC50 Human liver cancer cell HepG2. How it is done: as §1
Turning to `Cc1nc(N(C)c2ccc(Oc3ccc(C(=O)NO)cn3)cc2)c2ccccc2n1` [II-7, N-hydroxy-6-(4-(methyl(2-methyl-4-quinazolinyl)amino)phenoxy)nicotinamide], the IC50 fell in the range of 0.1 to 1 µM.
Same read-out and setting: as for `CN(c1ccc(OCCCC(=O)NO)cc1)c1ncnc2ccccc12` [II-13, N-hydroxy-4-(4-(methyl(4-quinazolinyl)amino)phenoxy)butanamide], the figure is 0.1 to 1 µM.

The next assay has as its system Human lung cancer cell H460. Put plainly: Cell proliferative activity (MTT / cck-8). Type of assay: cell-based. As to conditions: NCI-H460, incubated for 96 hours, read-out: Half-Inhibitory Concentration IC50 Human lung cancer cell H460. As to the method:
as §1
For the compound `Cc1nc(N(C)c2ccc(Oc3ccc(C(=O)NO)cn3)cc2)c2ccccc2n1` [II-7, N-hydroxy-6-(4-(methyl(2-methyl-4-quinazolinyl)amino)phenoxy)nicotinamide], the IC50 is 0.1 to 1 µM.
The same measure, in the same setting: the result for `CN(c1ccc(OCCCC(=O)NO)cc1)c1ncnc2ccccc12` [II-13, N-hydroxy-4-(4-(methyl(4-quinazolinyl)amino)phenoxy)butanamide] reads 0.1 to 1 µM.

Another assay deals with Human melanoma A375. Put plainly: Cell proliferative activity (MTT / cck-8). The class given is cell-based. The following applies: A-375, incubated for 96 hours, read-out: Half-Inhibitory Concentration IC50 Human melanoma A375. As to the method: as §1
For `Cc1nc(N(C)c2ccc(Oc3ccc(C(=O)NO)cn3)cc2)c2ccccc2n1` [II-7, N-hydroxy-6-(4-(methyl(2-methyl-4-quinazolinyl)amino)phenoxy)nicotinamide], the IC50 fell in the range of 0.1 to 1 µM.
Regarding `CN(c1ccc(OCCCC(=O)NO)cc1)c1ncnc2ccccc12` [II-13, N-hydroxy-4-(4-(methyl(4-quinazolinyl)amino)phenoxy)butanamide], the IC50 was in the range of 0.1 to 1 µM.

The test system of the next assay is Human ovarian cancer cell SKOV-3. Put plainly: Cell proliferative activity (MTT / cck-8). As to conditions: SK-OV-3, incubated for 96 hours, read-out: Half-Inhibitory Concentration IC50 Human ovarian cancer cell SKOV-3. The class given is cell-based. How it is done: as §1
Regarding `Cc1nc(N(C)c2ccc(Oc3ccc(C(=O)NO)cn3)cc2)c2ccccc2n1` [II-7, N-hydroxy-6-(4-(methyl(2-methyl-4-quinazolinyl)amino)phenoxy)nicotinamide], the IC50 is 0.1 to 1 µM.
In the case of `CN(c1ccc(OCCCC(=O)NO)cc1)c1ncnc2ccccc12` [II-13, N-hydroxy-4-(4-(methyl(4-quinazolinyl)amino)phenoxy)butanamide], the IC50 fell in the range of 0.1 to 1 µM.

In another assay the target is T3, HDAC8 (Homo sapiens, UniProt Q9BY41).
T3 sequence (Q9BY41 1-377): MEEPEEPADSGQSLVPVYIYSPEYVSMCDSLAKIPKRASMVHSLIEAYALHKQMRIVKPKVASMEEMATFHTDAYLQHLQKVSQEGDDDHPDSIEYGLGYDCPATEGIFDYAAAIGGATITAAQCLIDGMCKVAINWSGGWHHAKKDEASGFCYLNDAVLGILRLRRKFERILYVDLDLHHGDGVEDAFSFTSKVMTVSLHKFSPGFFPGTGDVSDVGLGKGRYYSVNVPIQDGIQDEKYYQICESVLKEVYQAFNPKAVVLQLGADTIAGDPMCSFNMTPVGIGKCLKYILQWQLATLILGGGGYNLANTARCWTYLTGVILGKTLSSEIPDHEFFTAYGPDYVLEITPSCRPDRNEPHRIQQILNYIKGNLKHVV
Put plainly: HDAC inhibitory activity, fluorescence-coupled acetylated peptide substrate assay. The following applies: IC50 HDAC8, Table 2.
`Cc1nc(N(C)c2ccc(Oc3ccc(C(=O)NO)cn3)cc2)c2ccccc2n1` [II-7, N-hydroxy-6-(4-(methyl(2-methyl-4-quinazolinyl)amino)phenoxy)nicotinamide]: the IC50 is above 1 µM.
Same read-out and setting: the result for `CN(c1ccc(OCCCC(=O)NO)cc1)c1ncnc2ccccc12` [II-13, N-hydroxy-4-(4-(methyl(4-quinazolinyl)amino)phenoxy)butanamide] reads above 1 µM.

The same assay, now with this note: IC50 HDAC8, Table 3.
Consider `Cc1nc(N(C)c2ccc(Oc3ccc(C(=O)NO)cn3)cc2)c2ccccc2n1` [II-7, N-hydroxy-6-(4-(methyl(2-methyl-4-quinazolinyl)amino)phenoxy)nicotinamide], for which the IC50 was 1.27 µM.

The same assay, now with this note: read-out: IC50 HDAC8; Table 3.
Regarding `CN(c1ccc(OCCCC(=O)NO)cc1)c1ncnc2ccccc12` [II-13, N-hydroxy-4-(4-(methyl(4-quinazolinyl)amino)phenoxy)butanamide], the IC50 was 2.46 µM.
